From patent US6399654B1, “Biflavanoids and derivatives thereof as antiviral agents” (priority 1995, dated 2002)
≈ marks a conversion by molar mass, not a printed value. Where a name gives a salt, the structure may show the parent alone. Read-outs that look alike come from different tables or passages of the source.

Experiments:
Adenovirus Type 5 [1] = experiment: microbe, parasite or virus in culture; format: cell-based
Adenovirus Type 5 [2] = experiment: Adenovirus type 5 neutral red dye uptake in A549 cells; format: cell-based; conditions: Adenovirus Type 5
[3] = test system: Human lung carcinoma (A549) cells; conditions: Adenovirus Type 5 test
[4] = test system: Human lung carcinoma (A549) cells
[5] = test system: Influenza A (H1N1) Texas/36/91; experiment: microbe, parasite or virus in culture; format: cell-based, influenza A virus; conditions: Influenza A virus, MDCK; Influenza A (H1N1) Texas/36/91; read-out: CPE Inhibition EC50
[6] = test system: Influenza A (H1N1) Texas/36/91; experiment: microbe, parasite or virus in culture; format: cell-based, influenza A virus; conditions: Influenza A virus, MDCK; Influenza A (H1N1) Texas/36/91; read-out: Neutral Red EC50
[7] = test system: Influenza A (H3N2) Beijing/32/92; experiment: microbe, parasite or virus in culture; format: cell-based, influenza A virus; conditions: Influenza A virus, MDCK; Influenza A (H3N2) Beijing/32/92; read-out: CPE Inhibition EC50
[8] = test system: Influenza A (H3N2) Beijing/32/92; experiment: microbe, parasite or virus in culture; format: cell-based, influenza A virus; conditions: Influenza A virus, MDCK; Influenza A (H3N2) Beijing/32/92; read-out: Neutral Red EC50
Influenza B Panama/45/90 [9] = experiment: microbe, parasite or virus in culture; format: cell-based; conditions: Influenza B virus, MDCK; Influenza B Panama/45/90; read-out: CPE Inhibition EC50
Influenza B Panama/45/90 [10] = experiment: microbe, parasite or virus in culture; format: cell-based; conditions: Influenza B virus, MDCK, read-out: Neutral Red EC50
Measles Virus [11] = experiment: microbe, parasite or virus in culture; format: cell-based; conditions: Measles morbillivirus, BSC-1; Measles Virus; read-out: CPI Inhibition EC50
Measles Virus [12] = experiment: Measles virus neutral red dye uptake in BSC-1 cells; format: cell-based; conditions: Measles morbillivirus, BSC-1
[13] = test system: Parainfluenza Type 3 Virus; experiment: organism not typed; format: cell-based; conditions: MA104, read-out: Neutral Red EC50
[14] = test system: Respiratory Syncytial Virus; experiment: microbe, parasite or virus in culture; format: cell-based; conditions: human respiratory syncytial virus, MA104; read-out: CPE Inhibition EC50
[15] = test system: Respiratory Syncytial Virus; experiment: microbe, parasite or virus in culture; format: cell-based; conditions: human respiratory syncytial virus, MA104; read-out: Neutral Red EC50
HIV-1 RT = target: T1, HIV-1 RT (Human immunodeficiency virus type 1 group M subtype B, UniProt P03366); experiment: Anti-HIV-1 RT assay (recombinant enzyme); format: biochemical; conditions: for inhibition at 200 µg/mL: read-out: Anti-HIV-1 RT % Inhibition at 200 μg/ml
T1 construct: made in house; host or cells: Escherichia coli

in vitro [16] = conditions: dog
in vitro [17] = conditions: dog, Neutral Red IC50 (cytotoxic)
in vitro [18] = conditions: African green monkey
in vitro [19] = conditions: human
in vitro [20] = conditions: African green monkey; remark: listed apart in the source
HCMV = HCMV CPE inhibition in HFF cells
HSV-1 = HSV-1 CPE inhibition in HFF cells
HSV-2 = HSV-2 CPE inhibition in HFF cells
VZV = VZV plaque reduction assay in HFF cells
[21] = Cytotoxicity by neutral red dye uptake, A549 cells; conditions: human
[22] = Cytotoxicity by neutral red dye uptake, BSC-1 cells; conditions: African green monkey
[23] = Cytotoxicity by neutral red dye uptake, MA-104 cells; conditions: African green monkey, Neutral Red IC50 (cytotoxic)
[24] = Cytotoxicity (CC50) in HFF cells in the herpes virus tests; conditions: human
HFF Cells = experiment: as above; conditions: HFF Cells, HSV-2 test
Hepatitis B Virus (HBV) = experiment: Inhibition of HBV replication in 2.2.15 cells, extracellular (virion) HBV DNA; conditions: for SI (CC50/EC90), HBV Virion: selective index;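 as to all read-outs here: extracellular virion HBV DNA in culture medium measured by slot blot hybridization with a 32P-labeled HBV probe, quantified against HBV DNA standards, after 9 days of daily dosing, compared with day 0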
2.2.15 cells = experiment: HBV cytotoxicity assay, neutral red dye uptake in 2.2.15 cells; format: cell-based; conditions: Homo sapiens, read-out: IC50 (toxicity, neutral red dye uptake)
Procedure: The toxicity of the test compounds in cultures of 2.2.15 cells, grown to confluence in 96-well flat-bottomed tissue culture plates and treated with compounds as described above, were assayed at four concentrations each in triplicate cultures, in 3 to 10-fold steps. Untreated control cultures were maintained on each plate. On each plate, wells containing no cells were used to correct for light scattering.
Stock solutions of text drugs were prepared in DMSO.

HIV-1 (strain LAV-1) = experiment: microbe, parasite or virus in culture; format: cell-based; conditions: for Selective Index (SI): PBM cells
[25] = Cytotoxicity in uninfected PHA-stimulated human PBM cells; conditions: human
adenovirus type 1 = experiment: Activity against adenovirus type 1; format: cell-based; conditions: Human mastadenovirus C
[26] = Hepatitis B virus, 216 h, read-out: EC50 (50% effective dose), HBV Virion, 2.2.15 cells, extracellular (virion) HBV DNA, 9 days treatment
[27] = Hepatitis B virus, 216 h, read-out: EC90 (90% effective dose), HBV Virion, 2.2.15 cells, extracellular (virion) HBV DNA, 9 days treatment
[28] = Hepatitis B virus, read-out: EC50, concentration necessary to decrease HBV DNA levels by 50%, 2.2.15 cells, combinations: with respect to RF
[29] = Hepatitis B virus, read-out: EC90, concentration necessary to decrease HBV DNA levels by 90%, 2.2.15 cells, combinations: with respect to RF

Structure (SMILES): Nc1ncnc2c1ncn2C[C@@H](CO)OCP(=O)(O)O [HPMPA, (S)-1-(3-hydroxy-2-phosophonylmethoxypropyl)adenine, reference compound]
- CPE Inhibition EC50 (Adenovirus Type 5 [1]): 30 µg/mL
- Neutral Red EC50 (Adenovirus Type 5 [2]): 8 µg/mL
- CPE Inhibition IC50 (cytotoxic) [3]: 80 µg/mL
- Neutral Red IC50 (cytotoxic) [4]: 40 µg/mL

Structure (SMILES): COc1ccc(-c2cc(=O)c3c(OC)cc(OC)c(C4C(=O)c5c(OC)cc(OC)cc5OC4c4ccc(OC)cc4)c3o2)cc1 (stereo not drawn) [Volkensiflavone hexamethyl ether (6), volkensiflavone hexamethyl ether]
- EC50 [5]: ~100 µg/mL (≈ 160 µM)
- EC50 [6]: ~100 µg/mL (≈ 160 µM)
- EC50 [7]: ~100 µg/mL (≈ 160 µM)
- EC50 [8]: ~100 µg/mL (≈ 160 µM)
- EC50 (Influenza B Panama/45/90 [9]): 2.6 µg/mL (≈ 4.16 µM)
- EC50 (Influenza B Panama/45/90 [10]): < 20 µg/mL
- EC50 (Measles Virus [11]): < 70 µg/mL
- EC50 (Measles Virus [12]): < 7 µg/mL
- EC50 (Adenovirus Type 5 [2]; Human mastadenovirus C, A549, read-out: Neutral Red EC50): > 100 µg/mL
- EC50 [13]: > 32 µg/mL
- EC50 [14]: ~18 µg/mL (≈ 28.8 µM)
- EC50 [15]: > 32 µg/mL
- activity against HIV-1 RT (in words) (HIV-1 RT): inactive
- inhibition at 200 µg/mL (HIV-1 RT): 0%
- Anti-HIV-1 RT IC50 (HIV-1 RT; values in parentheses or in words): Inactive
- IC50 (in vitro [16]; CPE Inhibition IC50 (50% cell inhibitory (cytotoxic) concentration), Influenza A (H1N1) test): < 24 µg/mL
- IC50 (in vitro [16]; CPE Inhibition IC50 (cytotoxic), Influenza A (H3N2) test): ~100 µg/mL (≈ 160 µM)
- IC50 (in vitro [16]; CPE Inhibition IC50 (cytotoxic), Influenza B test): ~100 µg/mL (≈ 160 µM)
- IC50 (in vitro [17]; Influenza A (H1N1) test): ~100 µg/mL (≈ 160 µM)
- IC50 (in vitro [17]; Influenza A (H3N2) test): ~100 µg/mL (≈ 160 µM)
- IC50 (in vitro [17]; Influenza B test): ~100 µg/mL (≈ 160 µM)
- IC50 (in vitro [18]): < 60 µg/mL
- IC50 (in vitro [19]): 47 µg/mL (≈ 75.2 µM)
- IC50 (in vitro [20]; CPE Inhibition IC50 (cytotoxic), Respiratory Syncytial Virus test): ~30 µg/mL (≈ 48 µM)
- IC50 (in vitro [20]; CPI Inhibition IC50 (cytotoxic), Parainfluenza Type 3 Virus test): ~15 µg/mL (≈ 24 µM)
- HCMV SI (CC50/EC50) (HCMV; HFF Cells): 0
- EC50 (HCMV; Human betaherpesvirus 5, HFF, read-out: HCMV CPE Inhibition EC50): > 100 µg/mL
- HSV-1 SI (CC50/EC50) (HSV-1; HFF Cells): 0
- EC50 (HSV-1; Human alphaherpesvirus 1, HFF, read-out: HSV-1 CPE Inhibition EC50): > 100 µg/mL
- HSV-2 SI (CC50/EC50) (HSV-2; HFF Cells): 0
- EC50 (HSV-2; Human alphaherpesvirus 2, HFF, read-out: HSV-2 CPE Inhibition EC50): > 100 µg/mL
- VZV SI (CC50/EC50) (VZV; HFF Cells): 3.4
- EC50 (VZV; Human alphaherpesvirus 3, HFF, read-out: VZV Plaque Reduction EC50): 3.3 µg/mL (≈ 5.28 µM)
- IC50 [21]: 50 µg/mL (≈ 80 µM)
- IC50 [22]: < 13 µg/mL
- IC50 ([23]; Parainfluenza Type 3 Virus test): ~33 µg/mL (≈ 52.8 µM)
- IC50 ([23]; Respiratory Syncytial Virus test): ~59 µg/mL (≈ 94.5 µM)
- CC50 at 3 days [24]: > 100 µg/mL
- CC50 at 10 days [24]: 11.1 µg/mL (≈ 17.8 µM)
- CC50 at 14 days [24]: > 100 µg/mL
- HSV-2 CPE Inhibition CC50 (HFF Cells): >100 µg/mL
- anti-HBV activity (in words) (Hepatitis B Virus (HBV); 2.2.15 cells): moderate anti-HBV activity
- EC50 (Hepatitis B Virus (HBV); [26]): 11 µM
- EC90 (Hepatitis B Virus (HBV); [27]): 108 µM
- SI (CC50/EC90), HBV Virion (Hepatitis B Virus (HBV)): 1.3

Structure (SMILES): Nc1nc2c(ncn2CCC(CO)CO)c(=O)[nH]1 [Penciclovir, penciclovir, reference compound]
- IC50 (2.2.15 cells): 433 µM
- EC50 (Hepatitis B Virus (HBV); [26]): 0.19 µM
- EC90 (Hepatitis B Virus (HBV); [27]): 0.92 µM
- EC50 (Hepatitis B Virus (HBV); [28]): 0.19 µM
- EC90 (Hepatitis B Virus (HBV); [29]): 0.92 µM
- SI (CC50/EC90), HBV Virion (Hepatitis B Virus (HBV)): 471

Structure (SMILES): O=C1c2c(O)cc(O)cc2O[C@H](c2ccc(O)cc2)[C@H]1c1c(O)cc(O)c2c(=O)cc(-c3ccc(O)c(O)c3)oc12 [Morelloflavone(7), morelloflavone]
- IC50 (HIV-1 RT; Anti-HIV-1 RT IC50, values in parentheses or in words): 116 µM
- IC50 (HIV-1 RT; HIV-1 RT IC50 (50% inhibition dose)): 116 µM
- inhibition at 200 µg/mL (HIV-1 RT): 99.2%
- anti-HIV-1 activity in PBM cells (in words) (HIV-1 (strain LAV-1)): potent inhibitory activity
- EC50 (HIV-1 (strain LAV-1); Human immunodeficiency virus 1, PBMC, human PBM cells infected with HIV-1 (strain LAV), read-out: Ant-HIV-1 in PBM cells EC50): 5.7 µM
- EC50 (HIV-1 (strain LAV-1); Human immunodeficiency virus 1, PBMC, read-out: EC50 (50% effective dose) in PBM cells infected with HIV-1, whole cell assay): 5.7 µg/mL
- Selective Index (SI) (HIV-1 (strain LAV-1)): 12
- Selective Index (SI) (HIV-1 (strain LAV-1); listed as Morelloflavone): approximately 10
- EC50 (HIV-1 (strain LAV-1); human PBM cells infected with HIV-1 (strain LAV), read-out: Ant-HIV-1 in PBM cells EC50): 8 µM
- EC50 (50% effective dose) in PBM cells infected with HIV-1 (HIV-1 (strain LAV-1); whole cell assay): 8.0 µg/mL
- IC50 [25]: 82 µM

Structure (SMILES): O=c1cc(-c2ccc(O)c(-c3c(O)cc4oc(-c5ccc(O)cc5)cc(=O)c4c3O)c2)oc2cc(O)cc(O)c12 [Robustaflavone sodium salt, Robustaflavone tetrasodium salt]
- EC50 (adenovirus type 1): 32 µM
- IC50 (adenovirus type 1; 50% cell inhibitory (cytotoxic) concentration, read-out: IC50 in the adenovirus type 1 test): > 160 µM
- fold less active/potent than robustaflavone against HBV (Hepatitis B Virus (HBV); in vitro assay against HBV): approximately 10 fold
- EC50 (Hepatitis B Virus (HBV); read-out: EC50 (50% effective dose), HBV Virion, 2.2.15 cells, extracellular (virion) HBV DNA, 9 days treatment): 3.1 µM
- EC90 (Hepatitis B Virus (HBV); read-out: EC90 (90% effective dose), HBV Virion, 2.2.15 cells, extracellular (virion) HBV DNA, 9 days treatment): 12 µM
- SI (CC50/EC90), HBV Virion (Hepatitis B Virus (HBV)): 88

Structure (SMILES): Nc1ccn([C@@H]2CS[C@H](CO)O2)c(=O)n1 [Lamivudine (3TC), lamivudine, reference compound]
- IC50 (2.2.15 cells): 1790 µM
- EC50 (Hepatitis B Virus (HBV); [26]): 0.038 µM
- EC90 (Hepatitis B Virus (HBV); [27]): 0.16 µM
- EC50 (Hepatitis B Virus (HBV); [28]): 0.038 µM
- EC90 (Hepatitis B Virus (HBV); [29]): 0.16 µM
- SI (CC50/EC90), HBV Virion (Hepatitis B Virus (HBV)): 11200
